According to patent publication US10118918B2, “PRMT5 inhibitors and uses thereof” (Epizyme, Inc., priority 2012, dated 2018):
pEC50, pIC50: −log10 of the molar value. Where two headings read alike, the source gives them in different places.

Tests used:
PRMT5/MEP50 = PRMT5/MEP50 (Homo sapiens (Human), UniProt O14744); assay: PRMT5 Biochemical Assay (PRMT5/MEP50 enzyme assay on peptide substrate, 3H-SAM Flashplate); settings: PRMT5/MEP50 4 nM, 3H-SAM 75 nM, peptide 40 nM
Excerpt: S-adenosylmethionine (SAM), S-adenosylhomocysteine (SAH), bicine, KCl, Tween20, dimethylsulfoxide (DMSO), bovine skin gelatin (BSG), and Tris(2-carboxyethyl)phosphine hydrochloride solution (TCEP) were purchased from Sigma-Aldrich at the highest level of purity possible. ^3H-SAM was purchase from American Radiolabeled Chemicals with a specific activity of 80 Ci/mmol. 384-well streptavidin Flashplates were purchased from PerkinElmer.
Peptide representative of human histone H4 residues 1-15 was synthesized with a C-terminal linker-affinity tag motif and a C-terminal amide cap by 21st Century Biochemicals. The peptide was high high-performance liquid chromatography (HPLC) purified to greater than 95% purity and confirmed by liquid chromatography mass spectrometry (LC-MS). The sequence was Ac-[…][K-Biot]-amide (SEQ ID NO.: 3).
Full-length human PRMT5 (NM_006109.3) transcript variant 1 clone was amplified from a fetal brain cDNA library, incorporating flanking 5′ sequence encoding a FLAG tag ([…]) (SEQ ID NO.: 4) fused directly to Ala 2 of PRMT5. Full-length human MEP50 (NM_024102) clone was amplified from a human testis cDNA library incorporating a 5′ sequence encoding a 6-histidine tag (MHHHHHH) (SEQ ID NO.: 5) fused directly to Arg 2 of MEP50. The amplified genes were sublconed into pENTR/D/TEV (Life Technologies) and subsequently transferred by Gateway™ attL x attR recombination to pDEST8 baculvirus expression vector (Life Technologies).
Recombinant baculovirus and Baculovirus-Infected Insect Cells (BIIC) were generated according to Bac-to-Bac kit instructions (Life Technologies) and Wasilko, 2006, respectively. Protein over-expression was accomplished by infecting exponentially growing Spodoptera frugiperda (SF9) cell culture at 1.2×10^6 cell/ml with a 5000 fold dilution of BIIC stock. Infections were carried out at 27° C. for 72 hours, harvested by centrifugation, and stored at −80° C. for purification.
Flag-PRMT5/6His-MeP50 was eluted with 300 mM Imidazole in the same buffer. The purity of recovered protein was 87%. Reference: Wasilko, D. J. and S. E. Lee: “TIPS: titerless infected-cells preservation and scale-up” Bioprocess J., 5 (2006), pp. 29-32.
General Procedure for PRMT5/MEP50 Enzyme Assays on Peptide Substrates.
The assays were all performed in a buffer consisting of 20 mM Bicine (pH=7.6), 1 mM TCEP, 0.005% BSG, and 0.002% Tween20, prepared on the day of use. Compounds in 100% DMSO (1 ul) were spotted into a polypropylene 384-well V-bottom plates (Greiner) using a Platemate Plus outfitted with a 384-channel head (Thermo Scientific). DMSO (1 ul) was added to Columns 11, 12, 23, 24, rows A-H for the maximum signal control and 1 ul of SAH, a known product and inhibitor of PRMT5/MEP50, was added to columns 11, 12, 23, 24, rows I-P for the minimum signal control. A cocktail (40 ul) containing the PRMT5/MEP50 enzyme and the peptide was added by Multidrop Combi (Thermo-Fisher). The compounds were allowed to incubate with PRMT5/MEP50 for 30 min at 25 degrees Celsius, then a cocktail (10 ul) containing ^3H-SAM was added to initiate the reaction (final volume=51 ul). The final concentrations of the components were as follows: PRMT5/MEP50 was 4 nM, ^3H-SAM was 75 nM, peptide was 40 nM, SAH in the minimum signal control wells was 100 uM, and the DMSO concentration was 1%. The assays were stopped by the addition of non-radioactive SAM (10 ul) to a final concentration of 600 uM, which dilutes the ^3H-SAM to a level where its incorporation into the peptide substrate is no longer detectable. 50 ul of the reaction in the 384-well polypropylene plate was then transferred to a 384-well Flashplate and the biotinylated peptides were allowed to bind to the streptavidin surface for at least 1 hour before being washed three times with 0.1% Tween20 in a Biotek ELx405 plate washer. […]

[1] = test system: symmetric di-methyl arginine in Z-138 cells; assay: Z-138 Methylation Assay (In Cell Western for symmetric di-methyl arginine and DNA content); format: cell-based; settings: 96 hours incubation, read-out: ICW EC50
Excerpt: [formula] Where top and bottom are the normally allowed to float, but may be fixed at 100 or 0 respectively in a 3-parameter fit. The Hill Coefficient normally allowed to float but may also be fixed at 1 in a 3-parameter fit. Y is the % inhibition and X is the compound concentration. Z-138 Methylation Assay
Z-138 suspension cells were purchased from ATCC (American Type Culture Collection, Manassas, Va.). RPMI/Glutamax medium, penicillin-streptomycin, heat inactivated fetal bovine serum, and D-PBS were purchased from Life Technologies, Grand Island, N.Y., USA. Odyssey blocking buffer, 800CW goat anti-rabbit IgG (H+L) antibody, and Licor Odyssey infrared scanner were purchased from Licor Biosciences, Lincoln, Nebr., USA. Symmetric di-methyl arginine antibody was purchased from EMD Millipore, Billerica, Mass., USA. 16% Paraformaldehyde was purchased from Electron Microscopy Sciences, Hatfield, Pa., USA.
Z-138 suspension cells were maintained in growth medium (RPMI 1640 supplemented with 10% v/v heat inactivated fetal bovine serum and 100 units/mL penicillin-streptomycin) and cultured at 37° C. under 5% CO2.
Cell Treatment, in Cell Western (ICW) for Detection of Symmetric Di-Methyl Arginine and DNA Content.
Z-138 cells were seeded in assay medium at a concentration of 50,000 cells per mL to a 384-well cell culture plate with 50 μL per well. Compound (100 nL) from 384 well source plates was added directly to 384 well cell plate. Plates were incubated at 37° C., 5% CO2 for 96 hours. After four days of incubation, 40 μL of cells from incubated plates were added to poly-D-lysine coated 384 well culture plates (BD Biosciences 356697). Plates were incubated at room temperature for 30 minutes then incubated at 37° C., 5% CO2 for 5 hours. After the incubation, 40 μL per well of 8% paraformaldehyde in PBS (16% paraformaldahyde was diluted to 8% in PBS) was added to each plate and incubated for 30 minutes. Plates were transferred to a Biotek 405 plate washer and washed 5 times with 100 μL per well of wash buffer (IX PBS with 0.1% Triton X-100 (v/v)). Next 30 μL per well of Odyssey blocking buffer were added to each plate and incubated 1 hour at room temperature. Blocking buffer was removed and 20 μL per well of primary antibody was added (symmetric di-methyl arginine diluted 1:100 in Odyssey buffer with 0.1% Tween 20 (v/v)) and plates were incubated overnight (16 hours) at 4° C. Plates were washed 5 times with 100 μL per well of wash buffer. Next 20 μL per well of secondary antibody was added (1:200 800CW goat anti-rabbit IgG (H+L) antibody, 1:1000 DRAQ5 (Biostatus limited) in Odyssey buffer with 0.1% Tween 20 (v/v)) and incubated for 1 hour at room temperature. The plates were washed 5 times with 100 μL per well wash buffer then 1 time with 100 μL per well of water. Plates were allowed to dry at room temperature then imaged on the Licor Odyssey machine which measures integrated intensity at 700 nm and 800 nm wavelengths. Both 700 and 800 channels were scanned.
First, the ratio for each well was determined by:
Each plate included fourteen control wells of DMSO only treatment (minimum inhibition) as well as fourteen control wells for maximum inhibition treated with 3 μM of a reference compound (Background wells). The average of the ratio values for each control type was calculated and used to determine the percent inhibition for each test well in the plate. Reference compound was serially diluted three-fold in DMSO for a total of nine test concentrations, beginning at 3 μM. Percent inhibition was determined and IC50 curves were generated using triplicate wells per concentration of compound. […]

Z-138 cells = assay: Z-138 Proliferation Assay (Cell Titer Glo); format: cell-based; settings: Homo sapiens, 120 h, 5 days incubation
Excerpt: [formula] Z-138 Proliferation Assay
Z-138 suspension cells were purchased from ATCC (American Type Culture Collection, Manassas, Va.). RPMI/Glutamax medium, penicillin-streptomycin, heat inactivated fetal bovine serum were purchased from Life Technologies, Grand Island, N.Y., USA. V-bottom polypropylene 384-well plates were purchased from Greiner Bio-One, Monroe, N.C., USA. Cell culture 384-well white opaque plates were purchased from Perkin Elmer, Waltham, Mass., USA. Cell-Titer Glo® was purchased from Promega Corporation, Madison, Wis., USA. SpectraMax M5 plate reader was purchased from Molecular Devices LLC, Sunnyvale, Calif., USA.
Z-138 suspension cells were maintained in growth medium (RPMI 1640 supplemented with 10% v/v heat inactivated fetal bovine serum and cultured at 37° C. under 5% CO2. Under assay conditions, cells were incubated in assay medium (RPMI 1640 supplemented with 10% v/v heat inactivated fetal bovine serum and 100 units/mL penicillin-streptomycin) at 37° C. under 5% CO2.
For the assessment of the effect of compounds on the proliferation of the Z-138 cell line, exponentially growing cells were plated in 384-well white opaque plates at a density of 10,000 cells/ml in a final volume of 50 μl of assay medium. A compound source plate was prepared by performing triplicate nine-point 3-fold serial dilutions in DMSO, beginning at 10 mM (final top concentration of compound in the assay was 20 μM and the DMSO was 0.2%). A 100 nL aliquot from the compound stock plate was added to its respective well in the cell plate. […] After addition of compounds, assay plates were incubated for 5 days at 37° C., 5% CO2, relative humidity >90%.
Cell viability was measured by quantitation of ATP present in the cell cultures, adding 35 μl of Cell Titer Glo® reagent to the cell plates. Luminescence was read in the SpectraMax M5 microplate reader. The concentration of compound inhibiting cell viability by 50% was determined using a 4-parametric fit of the normalized dose response curves.

PRMT5/MEP50, sequence (O14744 other isoform, or with tags, fused parts or gaps): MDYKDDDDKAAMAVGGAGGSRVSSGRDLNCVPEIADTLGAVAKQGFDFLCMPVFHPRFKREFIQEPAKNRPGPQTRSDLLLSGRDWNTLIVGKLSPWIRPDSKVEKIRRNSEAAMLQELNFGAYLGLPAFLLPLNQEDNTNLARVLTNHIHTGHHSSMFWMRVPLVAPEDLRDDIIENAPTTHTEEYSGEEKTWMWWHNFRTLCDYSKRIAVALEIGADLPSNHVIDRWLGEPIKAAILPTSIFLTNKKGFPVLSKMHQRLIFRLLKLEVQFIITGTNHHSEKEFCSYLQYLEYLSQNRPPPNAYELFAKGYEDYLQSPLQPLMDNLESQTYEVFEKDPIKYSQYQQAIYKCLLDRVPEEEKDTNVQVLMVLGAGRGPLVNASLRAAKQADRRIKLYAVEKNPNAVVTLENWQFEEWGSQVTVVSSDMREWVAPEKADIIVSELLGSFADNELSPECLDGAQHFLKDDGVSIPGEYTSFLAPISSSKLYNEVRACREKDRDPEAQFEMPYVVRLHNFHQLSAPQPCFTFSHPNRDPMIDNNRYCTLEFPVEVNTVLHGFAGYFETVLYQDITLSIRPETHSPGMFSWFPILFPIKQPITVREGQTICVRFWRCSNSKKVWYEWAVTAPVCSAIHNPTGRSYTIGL
PRMT5/MEP50, sequence (Q9BQA1 other isoform, or with tags, fused parts or gaps partner): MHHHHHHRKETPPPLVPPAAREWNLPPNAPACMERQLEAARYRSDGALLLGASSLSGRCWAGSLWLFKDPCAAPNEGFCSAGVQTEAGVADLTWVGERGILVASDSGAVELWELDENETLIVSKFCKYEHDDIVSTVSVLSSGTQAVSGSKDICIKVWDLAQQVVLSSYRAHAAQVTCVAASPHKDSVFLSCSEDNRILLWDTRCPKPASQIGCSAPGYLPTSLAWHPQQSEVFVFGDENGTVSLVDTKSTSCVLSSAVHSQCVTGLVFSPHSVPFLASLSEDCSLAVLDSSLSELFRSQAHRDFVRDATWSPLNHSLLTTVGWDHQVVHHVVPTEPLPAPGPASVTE

| pIC50 (PRMT5/MEP50) | pEC50 [1] | pEC50 ([1]; Homo sapiens) | Molecule | pEC50 (Z-138 cells) |
| --- | --- | --- | --- | --- |
| – | – | 6.00 to 7.00 | CN(C)S(=O)(=O)c1ccccc1OCC(=O)NC[C@@H](O)CN1Cc2ccccc2C1 [compound 21] | < 4.70 |
| – | – | 5.00 to 6.00 | CN1CCOc2cccc(OCC(=O)NC[C@@H](O)CN3Cc4ccccc4C3)c21 [compound 22] | – |
| – | – | > 7.00 | CN(C)S(=O)(=O)c1ccccc1OCC(=O)NC[C@H](O)CN1Cc2ccccc2C1 [compound 23] | 6.00 to 7.00 |
| – | – | 6.00 to 7.00 | CN1CCOc2cccc(OCC(=O)NC[C@H](O)CN3Cc4ccccc4C3)c21 [compound 26] | < 4.70 |
| – | – | 5.00 to 6.00 | O=C(NC[C@H](O)CN1Cc2ccccc2C1)c1cncc(OC2CCOCC2)c1 [compound 31] | – |
| > 7.00 | – | – | CC(=O)N1CCC(Nc2cc(C(=O)NC[C@H](O)CN3Cc4ccccc4C3)ncn2)CC1 [compound 39] | 6.00 to 7.00 |
| 5.00 to 6.00 | – | – | CC(=O)N1CC(Nc2cc(C(=O)NC[C@H](O)CN3CCc4ccccc43)ncn2)C1 [compound 41] | 4.30 to 5.00 |
| < 5.00 | – | – | CC(=O)N1CCC(Nc2cc(C(=O)NC[C@H](O)CN3CCCCc4ccccc43)ccn2)CC1 [compound 51] | – |
| < 5.00 | – | – | O=C(NCCCN1Cc2ccccc2C1)c1cc(NC2COC2)ncn1 [compound 52] | – |
| 5.00 to 6.00 | – | < 6.00 | CC(=O)N1CCC(Nc2cc(C(=O)NC[C@H](O)CN3CCCc4ccccc4C3)ccn2)CC1 [compound 53] | – |

Second part, the molecule before the results:

| Molecule | pIC50 (PRMT5/MEP50) | pEC50 [1] | pEC50 ([1]; Homo sapiens) | pEC50 (Z-138 cells) |
| --- | --- | --- | --- | --- |
| 2-(2-(1H-pyrazol-3-yl)phenoxy)-N-(2-hydroxy-3-(isoindolin-2-yl)propyl)acetamide [compound 8] | 6.00 to 7.00 | 6.00 to 7.00 | – | – |
| O=C(COc1cccc2cccnc12)NC[C@H](O)CN1Cc2ccccc2C1 [compound 4] | – | – | 6.00 to 7.00 | 5.00 to 6.00 |
| Cn1cnc2ccc(-c3cccc(OCC(O)CN4Cc5ccccc5C4)c3)cc21 (centres unmarked) [compound 9, 1-(isoindolin-2-yl)-3-(3-(1-methyl-1H-benzo[d]imidazol-6-yl)phenoxy)propan-2-ol] | 5.00 to 6.00 | – | – | – |
| CC(C)(C)OC(=O)Nc1cccc(C(=O)NCC(O)CN2Cc3ccccc3C2)c1 (centres unmarked) [compound 11, tert-butyl (3-((2-hydroxy-3-(isoindolin-2-yl)propyl)carbamoyl)phenyl)carbamate] | 6.00 to 7.00 | – | 5.00 to 6.00 | – |
| CS(=O)(=O)c1ccccc1OCC(=O)NCC(O)CN1Cc2ccccc2C1 (centres unmarked) [compound 12, N-(2-hydroxy-3-(isoindolin-2-yl)propyl)-2-(2-(methylsulfonyl)phenoxy)acetamide] | 6.00 to 7.00 | – | 6.00 to 7.00 | – |
| O=C(COc1cccc2cccnc12)NC[C@@H](O)CN1Cc2ccccc2C1 [compound 16, (R)—N-(2-hydroxy-3-(isoindolin-2-yl)propyl)-2-(quinolin-8-yloxy)acetamide] | 5.00 to 6.00 | – | – | – |
| COc1ccc(Cn2cnc3ccc(-c4ccc(OCC(O)CN5Cc6ccccc6C5)cc4)cc32)cc1 (centres unmarked) [compound 18] | 5.00 to 6.00 | – | – | – |
| OC(COc1cccc(CNC2CCCC2)c1)CN1Cc2ccccc2C1 (centres unmarked) [compound 20, 1-(3-((cyclopentylamino)methyl)phenoxy)-3-(isoindolin-2-yl)propan-2-ol] | 5.00 to 6.00 | – | – | 4.30 to 5.00 |
| O=C(NC[C@@H](O)CN1Cc2ccccc2C1)c1cccc(NC2CCOCC2)c1 [compound 24] | > 7.00 | – | – | – |
| N-(2-hydroxy-3-(isoindolin-2-yl)propyl)-3-((tetrahydro-2H-pyran-4-yl)amino)benzamide [compound 6] | < 5.00 | – | – | – |
| tert-butyl (3-((2-hydroxy-3-(isoindolin-2-yl)propyl)carbamoyl)phenyl)carbamate [compound 2] | 5.00 to 6.00 | – | – | – |
